Experiment [1] relates to lens epithelial cells in pig eye capsular bags. The experiment is described as follows: Lens epithelial cell growth in pig eye capsular bags (trypan blue cell counting). The conditions noted are these: 7 days culture. The format is cell-based. As to the method: (§1) Pig eye capsular bags were prepared by phacoemulsification followed by capsulorhexis and incubated in Dulbecco's Modified Eagle's Medium (DMEM) supplemented with 10% FBS and 1% penicillin and streptomycin without or with AR inhibitors, sorbinil (50 μM) and fidarestat (10-30 μM) for 7 days in 5% CO2 condition at 37° C. Medium was replaced with fresh medium without or with AR inhibitors every day. At the end of incubation, capsular bags were examined under the dissection microscope, cut into four pieces and flat mounted on glass slide with cellular side facing up. The pieces of capsular bags were fixed with 4% paraformaldehyde for 3-4 h at 4° C. After fixation, they were washed, transferred to 70% alcohol and stored at 4° C. until used for immunohistochemical analysis.
The pig eye capsular bags were incubated for 7 days as described above. The lens epithelial cells were detached from capsular bags by incubating with 0.25% trypsin-EDTA solution. The trypsinized cells were harvested, washed with PBS and re-suspended in PBS. To determine cell growth, equal volumes of cell suspension and trypan blue were mixed and the cells which excluded trypan blue dye were counted manually by using a hemocytometer.
Phacoemulsification technique for cataract surgery in humans was used to operate enucleated pig eyes. After removing the lens, a capsular tension ring was inserted in the capsular bag. The capsular bag was then cultured in complete growth-medium without or with AR inhibitors. […] After 7 days in culture, the ring was removed and the cells were harvested by trypsinization. The harvested cells were counted using trypan blue exclusion principle.

Experiment [2] deals with NF-κB DNA binding. As to the kind of experiment: Electrophoretic mobility shift assay (EMSA) of NF-κB in HLEC. The conditions noted are these: inhibitor 20 μM, no b-FGF. It counts as cell-based, human. The procedure:
Adenovirus SV-40 viral DNA-transformed human lens epithelial cells (HLE-B3; HLEC) were purchased from ATCC. Cells were maintained in DMEM supplemented with 20% heat-inactivated FBS, and 50 μg/ml gentamicin. The cells were grown in a humidified incubator at 37° C. and 5% CO2. The HLEC were pretreated with 20 μM of AR inhibitors sorbinil or zopolrestat for overnight in medium containing 0.5% FBS followed by stimulation with various concentrations (0-100 ng/mL) of b-FGF for 24 h and cell viability and expression of α-SMA, β-crystallin and ICAM-1 was quantified. To investigate the effect of b-FGF on NF-κB and MAPK activation, HLEC were starved in medium containing 0.5% FBS with or without AR inhibitors for overnight. The cells were washed with serum-free medium followed by incubation in serum-free medium without or with AR inhibitor containing 50 ng/mL b-FGF for different time intervals.
The HLEC in 150 cm^2 culture flasks were pretreated without or with AR inhibitors for 24 h in serum-free medium, followed by treatment with b-FGF (50 ng/ml) for 1 h at 37° C. The nuclear extracts were prepared as described earlier (Ramana et al., 2003). The Consensus oligonucleotides for NF-κB transcription factors were 5′-end labeled using T4 polynucleotide kinase. EMSA was performed as described earlier (Ramana et al., 2003.). […]
(Mobility shift assays separate free from complexed probe on a gel.)

In experiment [3] the test system is α-SMA, β-crystallin and ICAM-1 expression. As to the kind of experiment: Immunohistochemical analysis of flat-mounted pig eye capsular bags. It counts as cell-based. The note with it: 7 days of culture; sorbinil 50 μM, fidarestat 30 μM. As to the method: as §1
The capsular bag specimens flat mounted on slides were washed thrice with PBS and incubated with blocking solution containing 2% BSA, 0.1% Triton-X100, 5% normal goat serum for 1 h at room temperature. Subsequently specimens were washed, incubated with antibodies against α-SMA, β-crystallin, PCNA, and ICAM-1 for 1 h at room temperature. The slides were stained with either LSAB-HRP system (Dako, Carpinteria, Calif.) or incubated with respective FITC labeled secondary antibodies. The samples were examined by using Nikon epifluoroscence microscope (EPI-800 microscope) connected to a computer with Metamorph software.

We go through three compounds from patent US20090270490A1, “METHODS INVOLVING ALDOSE REDUCTASE INHIBITION” (THE BOARD OF REGENTS OF THE UNIVERSITY OF TEXAS SYSTEM, priority 2008, published 2009).

On to `NC(=O)[C@@H]1C[C@]2(NC(=O)NC2=O)c2cc(F)ccc2O1` [fidarestat, (2S,4S)-2-aminoformyl-6-fluoro-spiro[chroman-4,4′-imidazolidine]-2′,5′-dione], for which the “most effective dose at which LEC growth was significantly (p<0.001) inhibited” value in experiment [1] (doses 10-30 μM tested) worked out at 30 µM. Further, the “inhibiting the growth of LEC in pig eye capsular bags” value in experiment [1] (fidarestat 10-30 μM) is reported as “dose-dependent response”.

Regarding `O=C1NC(=O)[C@@]2(CCOc3ccc(F)cc32)N1` [sorbinil, (S)-6-fluoro-2,3-dihydrospiro[4H-1-benzopyran-4,4′-imidazolidine]-2′,5′-dione], the “basal activity of NF-κB with inhibitor alone” value in experiment [2] was “did not affect”. Moreover, the inhibition (usually the percentage by which the read-out fell short of the control) at 50 µM in experiment [1] (Sus scrofa, Epithelial cell, 168 h, sorbinil 50 μM, pig eye capsular bags, vs control) is ~74%. The “expression of α-SMA and β-crystallin in capsular bags (immunohistochemistry)” value in experiment [3] is “only few cells expressed α-SMA and β-crystallin”.

Regarding `O=C(O)Cc1nn(Cc2nc3cc(C(F)(F)F)ccc3s2)c(=O)c2ccccc12` [zopolrestat], the “basal activity of NF-κB with inhibitor alone” value in experiment [2] is on record as “did not affect”.
